Patent US11285127B2, “Compositions and methods for lowering triglycerides without raising LDL-C levels in a subject on concomitant statin therapy” (Amarin Pharmaceuticals Ireland Limited, priority 2013, dated 2022)

Test system: patients with fasting triglyceride levels >200 mg/dl and <500 mg/dl despite statin therapy
Assay: 12-week placebo-controlled study of >96% E-EPA: fasting triglycerides (TG), incl. TG goal
Assay type: in vivo, human
Conditions: for Median reduction in triglycerides compared to baseline / TG Median % chg from BL / TG, Diff from pbo (Hodges-Lehmann median difference) / TG, EOT (Week 12 endpoint) median / TG Diff from pbo (median % chg, Hodges-Lehmann) / TG EOT Median / Fasting Triglycerides, Week 12 EP Median (IQR): MITT; for Median reduction in triglycerides compared to baseline / Percentage Achieving TG Goal (less than 150 mg/dL): Week 12; for Fasting Triglycerides, Percent change from Baseline, Median (IQR) / Fasting Triglycerides, Difference from placebo, Estimated median: Week 12, MITT; for Fasting Triglycerides, Difference from placebo, Estimated median: difference in percent change
Protocol: A multi-center, placebo-controlled, randomized, double-blind, 12-week study was performed to evaluate the efficacy and safety of >96% E-EPA in patients with fasting triglyceride levels >200 mg/dl and <500 mg/dl despite statin therapy (the mean of two qualifying entry values needed to be >185 mg/dl and at least one of the values needed to be >200 mg/dl). The primary objective of the study was to determine the efficacy of >96% E-EPA 2 g daily and 4 g daily, compared to placebo, in lowering fasting TG levels in patients with high risk for cardiovascular disease and with fasting TG levels 200 mg/dl and <500 mg/dl, despite treatment to LDL-C goal on statin therapy. The population for this study was men and women >18 years of age with a body mass index ≤45 kg/m^2 with fasting TG levels greater than or equal to 200 mg/dl and less than 500 mg/dl and on a stable does of statin therapy (with or without ezetimibe). The statin was atorvostatin, rosuvastatin or simvastatin. The dose of statin must have been stable for ≥4 weeks prior to the LDL-C/TG baseline qualifying measurement for randomization. The statin dose was optimized such that the patients are at their LDL-C goal at the LDL-C/TG baseline qualifying measurements. The same statin at the same dose was continued until the study ended. Approximately 702 patients were randomized at approximately 80 centers in the U.S. The study was a 18- to 20-week, Phase 3, multi-center study consisting of 2 study periods: (1) A 6- to 8-week screening period that included a diet and lifestyle stabilization, a non-statin lipid-altering treatment washout, and an LDL-C and TG qualifying period and (2) A 12-week, double-blind, randomized, placebo-controlled treatment period. After confirmation of qualifying fasting LDL-C and TG values, eligible patients entered a 12-week, randomized, double-blind treatment period. At Visit 4 (Week 0), patients were randomly assigned to 1 of the following treatment groups: • >96% E-EPA 2 g daily, • >96% E-EPA 4 g daily, or • Placebo. During the double-blind treatment period, patients were to take 2 capsules (>96% E-EPA or matching placebo) in the morning and 2 capsules in the evening for a total of 4 capsules per day. • Patients in the >96% E-EPA 2 g/day treatment group received 1>96% E-EPA 1 g capsule and 1 matching placebo capsule in the morning and in the evening. • Patients in the >96% E-EPA 4 g/day treatment group received 2>96% E-EPA 1 g capsules in the morning and evening. The primary efficacy variable for the double-blind treatment period was percent change in TG from baseline to Week 12 endpoint. The secondary efficacy variables for the double-blind treatment period included the following: • Percent changes in total cholesterol (TC), high-density lipoprotein cholesterol (HDL-C), LDL-C, calculated non-HDL-C, and very low-density lipoprotein cholesterol (VLDL-C) from baseline to Week 12 endpoint; • Percent change in very low-density lipoprotein TG from baseline to Week 12; • Percent changes in apolipoprotein A-I (Apo A-1), apolipoprotein B (Apo B), and Apo A-1/Apo B ratio from baseline to Week 12; • Percent changes in lipoprotein(a) from baseline to Week 12; • Percent changes in LDL particle number and size, measured by nuclear magnetic resonance, from baseline to Week 12; • Percent change in remnant-like particle cholesterol from baseline to Week 12; • Percent change in oxidized LDL from baseline to Week 12; • Changes in FPG and HbA1c from baseline to Week 12; • Change in insulin resistance, as assessed by the homeostasis model index insulin resistance, from baseline to Week 12; • Percent change in lipoprotein associated phospholipase A2 (Lp-PLA2) from baseline to Week 12; • Change in intracellular adhesion molecule-1 from baseline to Week 12; • Change in interleukin-2 from baseline to Week 12; • Change in plasminogen activator inhibitor-1 from baseline to Week 12. […]

[1] = AMR 101 2 g + statin, Atorva subgroup
[2] = AMR 101 2 g + statin, Rosuva subgroup
[3] = AMR 101 2 g + statin, Simva subgroup
[4] = AMR 101 2 g + statin, Statin Potency High
[5] = AMR 101 2 g + statin, Statin Potency Low
[6] = AMR 101 2 g + statin, Statin Potency Medium
[7] = AMR 101 2 g + statin, Diabetes No, Week 12 endpoint
[8] = AMR 101 2 g + statin, Diabetes Yes, Week 12 endpoint
[9] = AMR 101 2 g + statin, Non-statin Washout No, Week 12 endpoint
[10] = AMR 101 2 g + statin, Non-statin Washout Yes, Week 12 endpoint
[11] = AMR 101 2 g + statin, baseline TG tertile Highest (≥289.5 mg/dL), Week 12 endpoint
[12] = AMR 101 2 g + statin, baseline TG tertile Lowest (<230.5 mg/dL), Week 12 endpoint
[13] = AMR 101 2 g + statin, baseline TG tertile Middle (230.5 to <289.5 mg/dL), Week 12 endpoint
[14] = AMR 101 4 g + statin, Atorva subgroup
[15] = AMR 101 4 g + statin, Rosuva subgroup
[16] = AMR 101 4 g + statin, Simva subgroup
[17] = AMR 101 4 g + statin, Statin Potency High
[18] = AMR 101 4 g + statin, Statin Potency Low
[19] = AMR 101 4 g + statin, Statin Potency Medium
[20] = AMR 101 4 g + statin, Diabetes No, Week 12 endpoint
[21] = AMR 101 4 g + statin, Diabetes Yes, Week 12 endpoint
[22] = AMR 101 4 g + statin, Non-statin Washout No, Week 12 endpoint
[23] = AMR 101 4 g + statin, Non-statin Washout Yes, Week 12 endpoint
[24] = AMR 101 4 g + statin, baseline TG tertile Highest (≥289.5 mg/dL), Week 12 endpoint
[25] = AMR 101 4 g + statin, baseline TG tertile Lowest (<230.5 mg/dL), Week 12 endpoint
[26] = AMR 101 4 g + statin, baseline TG tertile Middle (230.5 to <289.5 mg/dL), Week 12 endpoint
[27] = IPE 4 g/day (n = 216), 12 weeks, patients with lipoprotein data

For `CC/C=C\C/C=C\C/C=C\C/C=C\C/C=C\CCCC(=O)OCC` [AMR101, ethyl eicosapentaenoate], the “Median reduction in triglycerides compared to baseline” value (2 g/day) was 2.6%, the “Percentage Achieving TG Goal (less than 150 mg/dL)” value (2 g/day) was 3.8% and the “Subjects who Achieved TG Goal (less than 150 mg/dL), number” value (2 g/day, Week 12, total n 234) was 9. For the same compound, the “Median reduction in triglycerides compared to baseline” value (4 g/day) was 17.5%, the “Percentage Achieving TG Goal (less than 150 mg/dL)” value (4 g/day) was 7.1% and the “Subjects who Achieved TG Goal (less than 150 mg/dL), number” value (4 g/day, Week 12, total n 226) was 16. For the same compound, the “TG Median % chg from BL” value [1] was −0.5%, the “TG, Diff from pbo (Hodges-Lehmann median difference)” value [1] was −2.4 and the “TG, EOT (Week 12 endpoint) median” value [1] was 245.0. For the same compound, the “TG Median % chg from BL” value [2] was −5.8%, the “TG, Diff from pbo (Hodges-Lehmann median difference)” value [2] was −5.7 and the “TG, EOT (Week 12 endpoint) median” value [2] was 252.5. For the same compound, the “TG Median % chg from BL” value [3] was −8.8%, the “TG, Diff from pbo (Hodges-Lehmann median difference)” value [3] was −14.3 and the “TG, EOT (Week 12 endpoint) median” value [3] was 241.3. The “TG Median % chg from BL” value [4] was −5.8%, the “TG, Diff from pbo (Hodges-Lehmann median difference)” value [4] was −11.7 and the “TG, EOT (Week 12 endpoint) median” value [4] was 239.5. The “TG Median % chg from BL” value [5] was −18.8%, the “TG, Diff from pbo (Hodges-Lehmann median difference)” value [5] was −13.8 and the “TG, EOT (Week 12 endpoint) median” value [5] was 208.5. The “TG Median % chg from BL” value [6] was −5.3%, the “TG, Diff from pbo (Hodges-Lehmann median difference)” value [6] was −8.7 and the “TG, EOT (Week 12 endpoint) median” value [6] was 248.0. For the same compound, the “TG Diff from pbo (median % chg, Hodges-Lehmann)” value [7] was −10.8%, the “TG EOT Median” value [7] was 245.0 mg/dL and the “TG Median % chg from BL” value [7] was −12.1%. For the same compound, the “TG Diff from pbo (median % chg, Hodges-Lehmann)” value [8] was −9.8%, the “TG EOT Median” value [8] was 244.0 mg/dL and the “TG Median % chg from BL” value [8] was −1.5%. For the same compound, the “TG Diff from pbo (median % chg, Hodges-Lehmann)” value [9] was −10.7%, the “TG EOT Median” value [9] was 229.0 mg/dL and the “TG Median % chg from BL” value [9] was −7.9%. For the same compound, the “TG Diff from pbo (median % chg, Hodges-Lehmann)” value [10] was −9.5%, the “TG EOT Median” value [10] was 249.5 mg/dL and the “TG Median % chg from BL” value [10] was −4.2%. For the same compound, the “TG Diff from pbo (median % chg, Hodges-Lehmann)” value [11] was −16.9%, the “TG EOT Median” value [11] was 320.3 mg/dL and the “TG Median % chg from BL” value [11] was −8.7%. For the same compound, the “TG Diff from pbo (median % chg, Hodges-Lehmann)” value [12] was −4.1%, the “TG EOT Median” value [12] was 207.8 mg/dL and the “TG Median % chg from BL” value [12] was 0.7%. For the same compound, the “TG Diff from pbo (median % chg, Hodges-Lehmann)” value [13] was −9.9%, the “TG EOT Median” value [13] was 228.3 mg/dL and the “TG Median % chg from BL” value [13] was −13.0%. The “Fasting Triglycerides, Week 12 EP Median (IQR)” value (AMR101 2 g/d + statin, n 234) was 244.3 (117.0), the “Fasting Triglycerides, Percent change from Baseline, Median (IQR)” value (AMR101 2g/d + statin) was −5.6 (34.5) % and the “Fasting Triglycerides, Difference from placebo, Estimated median” value (AMR101 2g/d + statin) was −10.1. The “TG Median % chg from BL” value [14] was −23.9%, the “TG, Diff from pbo (Hodges-Lehmann median difference)” value [14] was −28.4 and the “TG, EOT (Week 12 endpoint) median” value [14] was 216.0. The “TG Median % chg from BL” value [15] was −20.5%, the “TG, Diff from pbo (Hodges-Lehmann median difference)” value [15] was −23.4 and the “TG, EOT (Week 12 endpoint) median” value [15] was 204.0. The “TG Median % chg from BL” value [16] was −14.7%, the “TG, Diff from pbo (Hodges-Lehmann median difference)” value [16] was −18.8 and the “TG, EOT (Week 12 endpoint) median” value [16] was 228.0. For the same compound, the “TG Median % chg from BL” value [17] was −20.2%, the “TG, Diff from pbo (Hodges-Lehmann median difference)” value [17] was −26.0 and the “TG, EOT (Week 12 endpoint) median” value [17] was 214.5. The “TG Median % chg from BL” value [18] was 0.5%, the “TG, Diff from pbo (Hodges-Lehmann median difference)” value [18] was −13.1 and the “TG, EOT (Week 12 endpoint) median” value [18] was 256.8. For the same compound, the “TG Median % chg from BL” value [19] was −15.8%, the “TG, Diff from pbo (Hodges-Lehmann median difference)” value [19] was −20.1 and the “TG, EOT (Week 12 endpoint) median” value [19] was 221.0. The “TG Diff from pbo (median % chg, Hodges-Lehmann)” value [20] was −16.8%, the “TG EOT Median” value [20] was 234.5 mg/dL and the “TG Median % chg from BL” value [20] was −15.0%. For the same compound, the “TG Diff from pbo (median % chg, Hodges-Lehmann)” value [21] was −23.2%, the “TG EOT Median” value [21] was 216.5 mg/dL and the “TG Median % chg from BL” value [21] was −18.7%. For the same compound, the “TG Diff from pbo (median % chg, Hodges-Lehmann)” value [22] was −20.8%, the “TG EOT Median” value [22] was 220.0 mg/dL and the “TG Median % chg from BL” value [22] was −16.7%. The “TG Diff from pbo (median % chg, Hodges-Lehmann)” value [23] was −22.4%, the “TG EOT Median” value [23] was 220.8 mg/dL and the “TG Median % chg from BL” value [23] was −17.7%. For the same compound, the “TG Diff from pbo (median % chg, Hodges-Lehmann)” value [24] was −31.1%, the “TG EOT Median” value [24] was 260.0 mg/dL and the “TG Median % chg from BL” value [24] was −21.8%. For the same compound, the “TG Diff from pbo (median % chg, Hodges-Lehmann)” value [25] was −14.4%, the “TG EOT Median” value [25] was 183.5 mg/dL and the “TG Median % chg from BL” value [25] was −10.9%. The “TG Diff from pbo (median % chg, Hodges-Lehmann)” value [26] was −17.9%, the “TG EOT Median” value [26] was 205.0 mg/dL and the “TG Median % chg from BL” value [26] was −19.3%. For the same compound, the “Fasting Triglycerides, Week 12 EP Median (IQR)” value (AMR101 4 g/d + statin, n 226) was 220.8 (92.0), the “Fasting Triglycerides, Percent change from Baseline, Median (IQR)” value (AMR101 4g/d + statin) was −17.5 (31.0) % and the “Fasting Triglycerides, Difference from placebo, Estimated median” value (AMR101 4g/d + statin) was −21.5. The “TG, Change From Baseline, % (median)” value [27] was −17.5%, the “TG, End of Treatment (median)” value [27] was 219.3 mg/dL and the “TG, Median Change From Baseline IPE 4 g/day vs Placebo, %” value (IPE 4 g/day vs placebo, 12 weeks, Hodges-Lehmann median) was −21.1%.
